Experimental data: patent US9387246B2, “Treatment methods for rheumatoid arthritis” (priority 2013, dated 2016)

Assays:
[1] = tested on: MMP-1; conditions: literature 1990-2012, ACR abstracts 2006-2013; cited from earlier work
[2] = tested on: Rheumatoid arthritis patients; assay type: in vivo, human; conditions: for Treatment effectiveness (reason for discontinuation / earlier trial): patient 16, January 2014
From the text: A treatment method administered to a patient may be a combination of one or more treatment methods.

[3] = tested on: MMP-3; conditions: literature 1990-2012, ACR abstracts 2006-2013; cited from earlier work
[4] = tested on: IL-6; conditions: literature 1990-2012, ACR abstracts 2006-2013; cited from earlier work
[5] = tested on: Rheumatoid arthritis patients; assay: Treatment outcome (effectiveness, clinical course) of treatment methods (Example 2); assay type: in vivo, human
Method: The patients were treated with the selected treatment methods for at least five months and the post-treatment biomarker levels and VECTRA DA Score were determined by VECTRA® DA test along with CRP level and ESR. The change is VECTRA DA Score, CRP level and ESR was determined to determine the change in disease activity and effectiveness of the selected treatment method.

[6] = Patient 6, outcome not reflected by change in any of the three disease markers, earlier treatments not algorithm-selected

## C[C@@H]1CCN(C(=O)CC#N)C[C@@H]1N(C)c1ncnc2[nH]ccc12 [TOFAC, Tofacitinib]
[1]
  MMP-1 positively affected by treatment method: Y
[2]; patient 16, XELJANZ 5 mg twice a day added March 2014
  Tapering of oral steroid, Prednisone: XELJANZ allowed
[3]
  MMP-3 positively affected by treatment method: Y
[4]
  IL-6 positively affected by treatment method: Y

## Cn1cnc([N+](=O)[O-])c1Sc1ncnc2nc[nH]c12 [Azathioprine (AZA), Azathioprine]
[2]
  Treatment effectiveness (reason for discontinuation / earlier trial): to inefficacy
[5]; [6]
  Treatment Outcome: (after failing
[5]; Patient 16, AZA from March 2012, triple therapy with CIMZIA from May 2012, based on VECTRA DA score
  Treatment Outcome: Not effective

B1: Certolizumab pegol (antibody, chains of the INN, looked up, V domains shown)
VH: EVQLVESGGGLVQPGGSLRLSCAASGYVFTDYGMNWVRQAPGKGLEWMGWINTYIGEPIYADSVKGRFTFSLDTSKSTAYLQMNSLRAEDTAVYYCARGYRSYAMDYWGQGTLVTVSS
VL: DIQMTQSPSSLSASVGDRVTITCKASQNVGTNVAWYQQKPGKAPKALIYSASFLYSGVPYRFSGSGSGTDFTLTISSLQPEDFATYYCQQYNIYPLTFGQGTKVEIK
modifications: Fab' PEG
[5]; [6]
  Treatment Outcome: (after failing

B2: TNF (CIMZIA) (antibody, chains of the INN, looked up, V domains shown)
VH: B1 VH
VL: B1 VL
modifications: Fab' PEG
[2]
  Treatment effectiveness (reason for discontinuation / earlier trial): without success
